Measured values: patent US12180226B2, “Spirotricycle RIPK1 inhibitors and methods of uses thereof” (Merck Sharp & Dohme LLC, priority 2021, dated 2024)
Where a name gives a salt, the structure may show the parent alone.

target: RIPK1 (recombinant GST-RIPK1 kinase domain, residues 1-327) (Homo sapiens (Human), UniProt Q13546); test: RIPK1-ADP-Glo Enzymatic Assay; format: biochemical; details: ADP-Glo; 25 nM GST-RIPK1, 300 μM ATP; assay lower limit ~25 nM; read-out: RIPK1 V0 Ec50
Method in brief: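 Enzyme from baculovirus-infected Sf21 cells, 25 nM final, was pre-incubated 30 min at ambient temperature with compound (ten-point, 1:3 dilution from 100000 nM, 1% DMSO), then reacted 150 min with 300 μM ATP and 3 μM dephosphorylated MBP. ADP was read by luminescence; EC50 from four-parameter fit.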

Sequence of RIPK1 (recombinant GST-RIPK1 kinase domain, residues 1-327) (Q13546 1-327): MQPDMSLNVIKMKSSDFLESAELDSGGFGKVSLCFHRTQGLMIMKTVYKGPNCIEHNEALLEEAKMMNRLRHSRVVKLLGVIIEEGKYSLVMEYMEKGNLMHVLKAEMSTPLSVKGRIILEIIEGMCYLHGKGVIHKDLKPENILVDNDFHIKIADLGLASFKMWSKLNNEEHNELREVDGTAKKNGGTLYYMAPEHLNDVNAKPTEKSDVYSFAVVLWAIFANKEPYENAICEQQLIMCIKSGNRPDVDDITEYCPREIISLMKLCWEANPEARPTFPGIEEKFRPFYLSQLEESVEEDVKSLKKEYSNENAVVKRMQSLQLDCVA

Compound | EC50
CCc1cc(C(=O)N2CCC3(CC2)O[C@@H]2CC[C@@H](c4cc(F)cc(F)c4)N2C3=O)no1 [Example 6.62, (5′S,7a′R)-5′-(3,5-difluorophenyl)-1-(5-ethyl-1,2-oxazole-3-carbonyl)tetrahydro-3′H-spiro[piperidine-4,2′-pyrrolo[2,1-b] [1,3]oxazol]-3′-one] | 64.8 nM
Cc1cccc(C(=O)N2CCC3(CC2)O[C@@H]2CC[C@@H](c4cccc(F)c4)N2C3=O)c1F [Example 6.119, (5′S,7a′R)-1-(2-fluoro-3-methylbenzene-1-carbonyl)-5′-(3-fluoro-phenyl)tetrahydro-3′H-spiro[piperidine-4,2′-pyrrolo[2,1-b][1,3]oxazol]-3′-one] | < 25 nM
O=C1N2[C@@H](CC[C@H]2c2cc(F)cc(F)c2)OC12CCN(c1ccc(OCC(F)F)c3ccnn13)CC2 [Example 19.4, (5′S,7a′R)-1-(4-(2,2-difluoroethoxy)pyrazolo [1,5-a]pyridin-7-yl)-5′-(3,5-difluorophenyl)tetrahydro-3′H-spiro[piperidine-4,2′-pyrrolo[2,1-b]oxazol]-3′-one, TFA salt] | 32 nM
O=C1N2C(CCC2c2cc(F)cc(F)c2)OC12CCN(c1cc(F)ccn1)CC2 (stereo not drawn) [Example 4.3, 5′-(3,5-difluorophenyl)-1-(4-fluoropyridin-2-yl)tetrahydro-3′H-spiro[piperidine-4,2′-pyrrolo[2,1-b] [1,3]oxazol]-3′-one] | < 25 nM
N#Cc1cnc(N2CCC3(CC2)O[C@@H]2CC[C@@H](c4ccccc4)N2C3=O)n2ncnc12 [Example 4.241, 5-[(5′S,7a′R)-3′-oxo-5′-phenyltetrahydro-1H,3′H-spiro[piperidine-4,2′-pyrrolo[2,1-b] [1,3]oxazol]-1-yl][1,2,4]triazolo[1,5-c] pyrimidine-8-carbonitrile] | < 25 nM
Cc1cnc(-c2ccc(N3CCC4(CC3)O[C@@H]3CC[C@@H](c5ccccc5)N3C4=O)n3nccc23)o1 [Example 21.17, (5′S,7a′R)-1-[4-(5-methyl-1,3-oxazol-2-yl)pyrazolo[1,5-a]pyridin-7-yl]-5′-phenyltetrahydro-3′H-spiro[piperidine-4,2′-pyrrolo[2,1-b][1,3]oxazol]-3′-one] | < 25 nM
O=C(c1ccc(F)cc1F)N1CCC2(CC1)O[C@@H]1CC[C@@H](c3cccc(F)c3)N1C2=O [Example 6.114, (5′S,7a′R)-1-(2,4-difluorobenzene-1-carbonyl)-5′-(3-fluoro-phenyl)tetrahydro-3′H-spiro[piperidine-4,2′-pyrrolo[2,1-b] [1,3]oxazol]-3′-one] | < 25 nM
N#Cc1cc(N2CCC3(O[C@@H]4CC[C@@H](c5ccccc5)N4C3=O)C(F)C2)ncn1 (single isomer, unassigned) [Example 4.95, 6-((3[S or R],4[R or S], 5′S,7a′R)-3-fluoro-3′-oxo-5′-phenyltetrahydro-3′H-spiro[piperidine-4,2′-pyrrolo[2,1-b]oxazol]-1-yl)pyrimidine-4-carbonitrile] | 58.3 nM
CC1CN(C(=O)c2ccccc2)CCC12O[C@@H]1CC[C@@H](c3cc(F)cc(F)c3)N1C2=O (stereo partly drawn) [Example 6.109, (5′S,7a′R)-1-(benzene-carbonyl)-5′-(3,5-difluorophenyl)-3-methyltetrahydro-3′H-spiro[piperidine-4,2′-pyrrolo[2,1-b][1,3]-oxazol]-3′-one] | < 25 nM
Cc1ccc(C(=O)N2CCC3(CC2)O[C@@H]2CC[C@@H](c4cc(F)cc(F)c4)N2C3=O)s1 [Example 5.34, (5′S,7a′R)-5′-(3,5-difluoro-phenyl)-1-(5-methylthio-phene-2-carbonyl)tetra-hydro-3′H-spiro[piperidine-4,2′-pyrrolo[2,1-b]oxazol]-3′-one] | < 25 nM
Cc1nc(N2CCC3(CC2)O[C@@H]2CC[C@@H](c4ccccc4)N2C3=O)ncc1-c1ncnn1C [Example 21.7, (5′S,7a′R)-1-[4-methyl-5-(1-methyl-1H-1,2,4-triazol-5-yl)pyrimidin-2-yl]-5′-phenyltetrahydro-3′H-spiro[piperidine-4,2′-pyrrolo[2,1-b][1,3]oxazol]-3′-one] | 181 nM
CC1CC2(CCN1C(=O)c1ccccc1)O[C@@H]1CC[C@@H](c3cc(F)cc(F)c3)N1C2=O (stereo partly drawn) [Example 6.105, (4R,5′S,7a′R)-1-(benzenecarbonyl)-5′-(3,5-difluorophenyl)-2-methyltetrahydro-3′H-spiro[piperidine-4,2′-pyrrolo[2,1-b] [1,3]oxazol]-3′-one] | 841 nM
O=C(c1nc(C2CC2)no1)N1CCC2(CC1)O[C@@H]1CC[C@@H](c3cc(F)cc(F)c3)N1C2=O [Example 6.35] | 89.7 nM
COc1cc(C(=O)N2CCC3(CC2)O[C@@H]2CC[C@@H](c4ccccc4)N2C3=O)ccc1F [Example 6.158, (5′S,7a′R)-1-(4-fluoro-3-methoxybenzene-1-carbonyl)-5′-phenyl-tetrahydro-3′H-spiro [piperidine-4,2′-pyrrolo[2,1-b][1,3]oxazol]-3′-one] | < 25 nM
N#Cc1cc(C(=O)N2CCC3(CC2)O[C@@H]2CC[C@@H](c4cc(F)cc(F)c4)N2C3=O)ccc1F [Example 5.14, 5-((5′S,7a′R)-5′-(3,5-difluorophenyl)-3′-oxo-tetrahydro-3′H-spiro [piperidine-4,2′-pyrrolo-[2,1-b]oxazole]-1-carbon-yl)-2-fluorobenzonitrile] | < 25 nM
N#CC1(c2cccc(C(=O)N3CCC4(CC3)O[C@@H]3CC[C@@H](c5cc(F)cc(F)c5)N3C4=O)c2)CC1 [Example 6.71, 1-{3-[(5′S,7a′R)-5′-(3,5-difluorophenyl)-3′-oxotetrahydro-1H,3′H-spiro[piperi-dine-4,2′-pyrrolo-[2,1-b][1,3]oxazole]-1-carbonyl]phenyl} cyclopropane-1-car-bonitrile] | < 25 nM
Cc1nc(N2CCC3(CC2)O[C@@H]2CC[C@@H](c4ccccc4)N2C3=O)ccc1F [Example 11.33, (5′S,7a′R)-1-(5-fluoro-6-methylpyridin-2-yl)-5′-phenyltetrahydro-3′H-spiro[piperidine-4,2′-pyrrolo[2,1-b][1,3]oxazol]-3′-one] | < 25 nM
COc1nc(N2CCC3(CC2)O[C@@H]2CC[C@@H](c4cc(F)cc(F)c4)N2C3=O)ncc1C [Example 4.59, (5′S,7a′R)-5′-(3,5-difluorophenyl)-1-(4-methoxy-5-methylpyrimidin-2-yl)tetrahydro-3′H-spiro[piperidine-4,2′-pyrrolo[2,1-b] [1,3]oxazol]-3′-one] | 149 nM
N#Cc1ccc(N2CCC3(CC2)O[C@@H]2CC[C@@H](c4cc(F)cc(F)c4)N2C3=O)nc1 [Example 4.44, 6-[(5′S,7a′R)-5′-(3,5-difluorophenyl)-3′-oxotetrahydro-1H,3′H-spiro[piperidine-4,2′-pyrrolo[2,1-b] [1,3]oxazol]-1-yl]pyridine-3-carbonitrile] | < 25 nM
O=C(c1cccc(F)c1F)N1CCC2(CC1)O[C@@H]1CC[C@@H](c3cc(F)cc(F)c3)N1C2=O [Example 5.3, (5′S,7a′R)-1-(2,3-difluoro-benzene-1-carbonyl)-5′-(3,5-difluorophenyl)tetra-hydro3′H-spiro[piperidine-4,2′-pyrrolo[2,1-b][1,3]oxazol]-3′-one] | < 25 nM
CC(C)Oc1cc(N2CCC3(CC2)O[C@@H]2CC[C@@H](c4cc(F)cc(F)c4)N2C3=O)ncc1C#N [Example 4.41, 6-[(5′S,7a′R)-5′-(3,5-difluorophenyl)-3′-oxotetrahydro-1H,3′H-spiro[piperidine-4,2′-pyrrolo[2,1-b] [1,3]oxazol]-1-yl]-4-[(propan-2-yl)oxy]pyridine-3-carbonitrile] | < 25 nM
Cc1nc(N2CCC3(CC2)O[C@@H]2CC[C@@H](c4ccccc4)N2C3=O)ncc1-c1ncn(C)n1 [Example 21.4, (5′S,7a′R)-1-[4-methyl-5-(1-methyl-1H-1,2,4-triazol-3-yl)pyrimidin-2-yl]-5′-phenyltetrahydro-3′H-spiro[piperidine-4,2′-pyrrolo[2,1-b][1,3]oxazol]-3′-one] | 117 nM
O=C(c1cccc(F)c1)N1CCC2(CC1)O[C@@H]1CC[C@@H](c3cc(F)cc(F)c3)N1C2=O [Example 7.5, (5′S,7a′R)-5′-(3,5-difluorophenyl)-1-(3-fluorobenzene-1-carbonyl)tetrahydro-3′H-spiro[piperidine-4,2′-pyrrolo[2,1-b][1,3]oxazol]-3′-one] | < 25 nM
O=C1N2[C@@H](CC[C@H]2c2ccccc2)OC12CCN(c1ccc(F)c3ncnn13)CC2 [Example 4.223, (5′S,7a′R)-1-(8-fluoro[1,2,4]triazolo[1,5-a]pyridin-5-yl)-5′-phenyltetrahydro-3′H-spiro[piperidine-4,2′-pyrrolo[2,1-b] [1,3]oxazol]-3′-one] | < 25 nM
COCOc1cc(-c2ccc(N3CCC4(CC3)O[C@@H]3CC[C@@H](c5ccccc5)N3C4=O)nc2)on1 [Example 4.164, (5′S,7a′R)-1-{5-[3-(methoxymethoxy)-1,2-oxazol-5-yl]pyridin-2-yl}-5′-phenyltetrahydro-3′H-spiro[piperidine-4,2′-pyrrolo[2,1-b] [1,3]oxazol]-3′-one] | 28.8 nM
N#Cc1cnnc(N2CCC3(CC2)O[C@@H]2CC[C@@H](c4cc(F)cc(F)c4)N2C3=O)c1 [Example 4.19, 6-[(5′S,7a′R)-5′-(3,5-difluorophenyl)-3′-oxotetrahydro-1H,3′H-spiro[piperidine-4,2′-pyrrolo[2,1-b] [1,3]oxazol]-1-yl]pyridazine-4-carbonitrile] | 477 nM
O=C(c1cc(F)c(F)cc1F)N1CCC2(CC1)O[C@@H]1CC[C@@H](c3cc(F)cc(F)c3)N1C2=O [Example 5.4, (5′S,7a′R)-5′-(3,5-difluoro-phenyl)-1-(2,4,5-trifluoro-benzene-1-carbonyl)tetra-hydro-3′H-spiro[piperi-dine-4,2′-pyrrolo[2,1-b] [1,3]oxazol]-3′-one] | < 25 nM
